From PubChem BioAssay AID1996
Converted amounts (≈) assume the structure as drawn.

details: buffer; pH 7.4; 200.0 µM

Compound	solubility kinetic
Cc1ccc(C(=O)N2CCCC(Nc3ccc(F)c(F)c3)C2)cn1 (stereo not given)	> 49.7 µg/mL
Cc1cc(NC(=O)c2ccco2)sc1C	> 33.2 µg/mL
O=C(Cn1ccc([N+](=O)[O-])n1)NCCc1c[nH]c2ccccc12	> 47 µg/mL
O=C(c1ccc(Cl)cc1[N+](=O)[O-])N1CCc2ccccc2C1	6.1 µg/mL (≈ 19.3 µM)
CCOC(=O)c1c(-c2ccc(F)cc2)csc1/N=C/N(C)C	> 48.1 µg/mL
COc1ccc(Cl)cc1NC(=O)C1(c2cccs2)CCOCC1	21.7 µg/mL (≈ 61.7 µM)
CC(=O)c1cccc(NC(=O)NCCc2ccc(Cl)cc2)c1	1.6 µg/mL (≈ 5.05 µM)
Cc1ccc(NC(=O)CSc2nc(N)cc(=O)[nH]2)cc1S(=O)(=O)N1CCCCCC1	10.6 µg/mL (≈ 23.5 µM)
Cc1cc(C)c2c(CN3CCCCC3C)cc(=O)oc2c1.Cl (stereo not given)	2 µg/mL
C/C(=N\O)C(=O)C(CN1CCCCC1)CN1CCCCC1	30.2 µg/mL (≈ 102 µM)
Cc1ccccc1CC(=O)N1CCN(C(=O)C2CCCO2)CC1 (stereo not given)	> 47.5 µg/mL
Cc1cc(C(=O)Nc2ccc(Cl)cc2)on1	3.8 µg/mL (≈ 16.1 µM)
COCc1c(C(=O)N2CCc3ccccc32)oc2ccccc12	7.6 µg/mL (≈ 24.7 µM)
CCOC(=O)CNC(=O)CSc1nccn1Cc1ccco1	> 48.5 µg/mL
Cc1cccc(NC(=S)NC(=O)Cc2ccccc2)c1C	1.1 µg/mL (≈ 3.69 µM)
CSc1nc(C)c(Cc2c(F)cccc2Cl)c(=O)[nH]1	1 µg/mL (≈ 3.35 µM)
COc1ccc(C2=NOC(C(=O)Nc3cccnc3)C2)cc1OC (stereo not given)	46.8 µg/mL (≈ 143 µM)
Cc1ccc(N/C=C/C(=O)c2ccccc2)cc1Br	< 0.7 µg/mL
CC1Cc2cc(/C=C3/SC(=S)N(C)C3=O)ccc2O1 (stereo not given)	< 0.6 µg/mL
Nc1ccc2c(c1)Oc1ccccc1C=C2	12.3 µg/mL (≈ 58.8 µM)

Compound	solubility kinetic
O=C(COC(=O)CCSc1ccccc1)Nc1ccccc1	41.6 µg/mL (≈ 132 µM)
CS(=O)(=O)c1ccc2nc(NC(=O)c3ccc(N4C(=O)CCC4=O)cc3)sc2c1	0.3 µg/mL (≈ 0.699 µM)
Cl.Nc1cc(Cl)ccc1N1CCCCCC1	12.4 µg/mL
Cc1ccccc1OP(N)(=O)Oc1ccccc1C	> 41.6 µg/mL
CC(=O)Nc1ccc(NC(=O)COC(=O)c2ccc(S(=O)(=O)NCc3ccco3)cc2)cc1	8.9 µg/mL (≈ 18.9 µM)
COC(=O)C1C(c2ccccc2)NC(=O)NC1(O)C(F)(F)Cl (stereo not given)	> 50.2 µg/mL
CCNC(=O)COC(=O)c1cc(-c2ccccc2)nn1-c1ccccc1	> 52.4 µg/mL
CN1CCN(C(=S)C(=O)Nc2ccccc2)CC1	38.2 µg/mL (≈ 145 µM)
Cc1ccc(F)cc1NC(=O)N1CCCN(c2ccc(C(F)(F)F)cn2)CC1	6.6 µg/mL (≈ 16.7 µM)
CCCC(=O)Nc1ccc2c(c1)Cc1ccccc1-2	1.5 µg/mL (≈ 5.97 µM)
Cc1ccc(OC(C)C(=O)N(C)Cc2ccccc2)c([N+](=O)[O-])n1 (stereo not given)	46.9 µg/mL (≈ 142 µM)
CS(=O)(=O)c1ccc(C(=O)N2CC(=O)Nc3ccccc32)cc1	> 49.6 µg/mL
O=C(Nc1cccnc1)Nc1cccc([N+](=O)[O-])c1	10 µg/mL (≈ 38.7 µM)
COc1ccc2[nH]c3c(=O)n(CCCN4CCOCC4)cnc3c2c1	> 51.4 µg/mL
CN(CC(=O)O)S(=O)(=O)c1ccc2c(c1)NC(=O)CC(=O)N2	> 49.1 µg/mL
CC(C)c1cccc(C(C)C)c1NC(=S)Nc1cccc(Cl)c1	< 0.4 µg/mL
COC(=O)CCCC(=O)N1CCC(CCC(=O)NC2CC2)CC1	> 48.7 µg/mL
CCCc1cc(=O)[nH]c(SCC(=O)N2c3ccccc3NC(=O)C2(C)C)n1	57.4 µg/mL (≈ 149 µM)
O=C(Nc1nc2ccccc2s1)c1ccccc1	3.1 µg/mL (≈ 12.2 µM)
O=C(Nc1ccc(CN2CCS(=O)(=O)CC2)cc1)c1ccc(F)cc1	29.9 µg/mL (≈ 82.5 µM)

Compound	solubility kinetic
O=[N+]([O-])c1ccc(Cl)c(NC(=S)N2CCCC2)c1	9.7 µg/mL (≈ 33.9 µM)
Cc1ccccc1-c1nc2ccccc2c(=O)n1C	35.8 µg/mL (≈ 143 µM)
OC1(Cc2ccccc2)CCNCC1	> 28.7 µg/mL
CCSc1nsc(NC(=O)Nc2cccc(OC)c2)n1	1.7 µg/mL (≈ 5.48 µM)
CC(=O)Nc1ccc(S(=O)(=O)NCC(=O)OCC(=O)N2CC(C)OC(C)C2)cc1 (stereo not given)	> 64.1 µg/mL
COc1cc2c(cc1OC)C(C)N(C(=O)c1ccc(C)o1)CC2 (stereo not given)	> 47.3 µg/mL
O=C(NC(=S)Nc1cccc2cc(O)ccc12)c1ccco1	13.2 µg/mL (≈ 42.3 µM)
CN(CC(=O)Nc1cccc(Cl)c1)C1=NS(=O)(=O)c2ccccc21	3.7 µg/mL (≈ 10.2 µM)
COc1ccc(NC(=O)c2ccccc2-c2ccccc2)c(C)c1	7.2 µg/mL (≈ 22.7 µM)
CN(C)c1cc[n+](CC(=O)c2ccc(Br)cc2)cc1.[Cl-]	52.8 µg/mL
COc1ccc(CN2C(=O)C(C)=C(C)C2OC)cc1 (stereo not given)	> 39.2 µg/mL
Cc1cc(C)cc(OCc2nc(-c3cccnc3)no2)c1	13.3 µg/mL (≈ 47.3 µM)
CCN(CC)S(=O)(=O)c1c(OC)cc(C)c(Cl)c1C	18.3 µg/mL (≈ 59.8 µM)
Cc1ccc(N2C(=O)Nc3ccccc3S2(=O)=O)cc1Cl	0.8 µg/mL (≈ 2.48 µM)
O=C(CN1CCCC1)Nc1c(Cl)cccc1Cl	36.9 µg/mL (≈ 135 µM)
O=C(c1ccc2ccccc2c1)N1CCc2ccccc21	< 0.6 µg/mL
Cc1ccc(S(=O)(=O)NCC(=O)OCC(=O)NC2CCCCC2)cc1	> 55.3 µg/mL
CCOc1ncccc1C(=O)Nc1ccc2c(c1)OCCO2	> 45 µg/mL
CC(=O)c1ccc(NC(=O)c2cc3ccccc3o2)cc1	1 µg/mL (≈ 3.58 µM)
Clc1ccccc1C1CC(c2ccccc2)=Nc2ccccc2N1 (stereo not given)	1.2 µg/mL (≈ 3.61 µM)
